In PubChem BioAssay AID248 (DTP/NCI, 2004):
Values joined by “and” are separate entries in the source; they are usually repeats but may differ in a detail not shown here. Equal entries are not always repeated. Inconclusive results and toxic doses are left out. Cut-off read from the data, not from the text of the source: active = T/C of 150% or more; inactive = T/C below 125%.

System: L1210 leukemia ip in BDF1 mice, survival T/C
Experiment: NCI In Vivo Anticancer Drug Screen. Data for tumor model L1210 Leukemia (intraperitoneal) in B6D2F1 (BDF1) mice
Details: endpoint: mean survival time, higher = longer survival
Summary of the method: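 Mice bearing the transplanted tumor received compound or vehicle. Survival of the treated group was divided by that of the vehicle-treated control group to give the ratio.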

Measured: T/C

Nc1n[nH]c(N)n1
inactive: dose: 12.5 mg/kg/injection, schedule: Q#A X020 (ip), vehicle: saline 105 % of control | dose: 25.0 mg/kg/injection, schedule: Q01DX010 (ip), vehicle: saline 103 % of control | dose: 25.0 mg/kg/injection, schedule: Q#A X020 (ip), vehicle: saline 109 % of control | dose: 28.0 mg/kg/injection, schedule: Q03HX040 (ip), vehicle: water 105 % of control | dose: 32.0 mg/kg/injection, schedule: Q01DX015 (ip), vehicle: saline 94 % of control | dose: 48.0 mg/kg/injection, schedule: Q## X008 (ip), vehicle: saline 101 % of control | dose: 50.0 mg/kg/injection, schedule: Q01DX010 (ip), vehicle: saline 110 % of control | dose: 50.0 mg/kg/injection, schedule: Q06HX068 (ip), vehicle: water 106 % of control | dose: 56.0 mg/kg/injection, schedule: Q03HX008 (ip), vehicle: water 103 % of control | dose: 56.0 mg/kg/injection, schedule: Q03HX024 (ip), vehicle: water 111 % of control | dose: 63.0 mg/kg/injection, schedule: Q01DX015 (ip), vehicle: saline 102 % of control | dose: 96.0 mg/kg/injection, schedule: Q## X008 (ip), vehicle: saline 102 % of control | dose: 100.0 mg/kg/injection, schedule: Q01DX009 (ip), vehicle: saline 108 % of control | dose: 100.0 mg/kg/injection, schedule: Q01DX009 (sc), vehicle: saline 102 % of control | dose: 100.0 mg/kg/injection, schedule: Q06HX068 (ip), vehicle: water 110 % of control | dose: 100.0 mg/kg/injection, schedule: Q#A X034 (ip), vehicle: water 107 % of control | dose: 111.0 mg/kg/injection, schedule: Q01DX Z (ip), vehicle: methylcellulose (MC) 100 % of control | dose: 112.0 mg/kg/injection, schedule: Q12HX018 (ip), vehicle: water 111 % of control | dose: 125.0 mg/kg/injection, schedule: Q01DX015 (ip), vehicle: saline 110 % of control | dose: 125.0 mg/kg/injection, schedule: Q03HX008 (oral), vehicle: water 107 % of control | dose: 125.0 mg/kg/injection, schedule: Q03HX024 (oral), vehicle: water 105 % of control | dose: 192.0 mg/kg/injection, schedule: Q## X008 (ip), vehicle: saline 104 % of control | dose: 200.0 mg/kg/injection, schedule: Q01DX001 (ip), vehicle: saline 104 % of control and 107 % of control | dose: 200.0 mg/kg/injection, schedule: Q01DX001 (sc), vehicle: saline 104 % of control | dose: 200.0 mg/kg/injection, schedule: Q01DX006 (iv), vehicle: saline 105 % of control | dose: 200.0 mg/kg/injection, schedule: Q01DX009 (sc), vehicle: saline 108 % of control | dose: 200.0 mg/kg/injection, schedule: Q01DX010 (ip), vehicle: saline 98 % of control | dose: 200.0 mg/kg/injection, schedule: Q01DX017 (ip), vehicle: water 111 % of control | dose: 200.0 mg/kg/injection, schedule: Q## X003 (ip), vehicle: saline 110 % of control | dose: 200.0 mg/kg/injection, schedule: Q## X040 (ip), vehicle: saline 104 % of control | dose: 225.0 mg/kg/injection, schedule: Q12HX010 (ip), vehicle: water 107 % of control | dose: 250.0 mg/kg/injection, schedule: Q03HX008 (oral), vehicle: water 107 % of control | dose: 250.0 mg/kg/injection, schedule: Q03HX024 (oral), vehicle: water 102 % of control | dose: 256.0 mg/kg/injection, schedule: Q## X088 (ip), vehicle: other 98 % of control | dose: 384.0 mg/kg/injection, schedule: Q## X008 (ip), vehicle: saline 103 % of control | dose: 395.0 mg/kg/injection, schedule: Q01DX001 (ip), vehicle: saline 101 % of control and 110 % of control | dose: 400.0 mg/kg/injection, schedule: Q01DX001 (ip), vehicle: saline 106 % of control | dose: 400.0 mg/kg/injection, schedule: Q01DX001 (oral), vehicle: water 102 % of control | dose: 400.0 mg/kg/injection, schedule: Q01DX001 (sc), vehicle: saline 102 % of control | dose: 400.0 mg/kg/injection, schedule: Q01DX009 (sc), vehicle: saline 108 % of control | dose: 400.0 mg/kg/injection, schedule: Q01DX010 (ip), vehicle: saline 104 % of control | dose: 400.0 mg/kg/injection, schedule: Q## X003 (ip), vehicle: saline 106 % of control | dose: 400.0 mg/kg/injection, schedule: Q## X024 (ip), vehicle: saline 100 % of control | dose: 400.0 mg/kg/injection, schedule: Q## X040 (ip), vehicle: saline 108 % of control | dose: 450.0 mg/kg/injection, schedule: Q01DX001 (ip), vehicle: water 103 % of control | dose: 500.0 mg/kg/injection, schedule: Q01DX001 (ip), vehicle: water 97 % of control and 102 % of control | dose: 500.0 mg/kg/injection, schedule: Q01DX001 (oral), vehicle: water 104 % of control | dose: 500.0 mg/kg/injection, schedule: Q01DX005 (oral), vehicle: water 101 % of control | dose: 500.0 mg/kg/injection, schedule: Q01DX Z (ip), vehicle: methylcellulose (MC) 110 % of control | dose: 500.0 mg/kg/injection, schedule: Q03HX008 (oral), vehicle: water 108 % of control | dose: 500.0 mg/kg/injection, schedule: Q04DX003 (oral), vehicle: water 105 % of control | dose: 500.0 mg/kg/injection, schedule: Q## X006 (oral), vehicle: water 102 % of control | dose: 592.0 mg/kg/injection, schedule: Q01DX001 (ip), vehicle: saline 105 % of control and 108 % of control | dose: 675.0 mg/kg/injection, schedule: Q06HX016 (ip), vehicle: saline 100 % of control | dose: 768.0 mg/kg/injection, schedule: Q## X008 (ip), vehicle: saline 111 % of control | dose: 800.0 mg/kg/injection, schedule: Q01DX001 (ip), vehicle: saline 102 % of control and 105 % of control and 106 % of control | dose: 800.0 mg/kg/injection, schedule: Q01DX001 (oral), vehicle: water 105 % of control | dose: 800.0 mg/kg/injection, schedule: Q01DX001 (sc), vehicle: saline 110 % of control | dose: 800.0 mg/kg/injection, schedule: Q## X003 (ip), vehicle: saline 108 % of control | dose: 800.0 mg/kg/injection, schedule: Q## X024 (ip), vehicle: saline 106 % of control | dose: 806.0 mg/kg/injection, schedule: Q01DX001 (ip), vehicle: saline 104 % of control | dose: 806.0 mg/kg/injection, schedule: Q08DX002 (ip), vehicle: saline 101 % of control | dose: 888.0 mg/kg/injection, schedule: Q01DX001 (ip), vehicle: saline 106 % of control and 111 % of control | dose: 900.0 mg/kg/injection, schedule: Q01DX001 (ip), vehicle: water 104 % of control | dose: 900.0 mg/kg/injection, schedule: Q03HX024 (ip), vehicle: saline 95 % of control | dose: 900.0 mg/kg/injection, schedule: Q#A X018 (ip), vehicle: water 94 % of control | dose: 1000.0 mg/kg/injection, schedule: Q01DX001 (ip), vehicle: water 101 % of control and 103 % of control | dose: 1000.0 mg/kg/injection, schedule: Q01DX001 (oral), vehicle: water 98 % of control | dose: 1000.0 mg/kg/injection, schedule: Q04DX003 (oral), vehicle: water 107 % of control | dose: 1200.0 mg/kg/injection, schedule: Q01DX001 (ip), vehicle: saline 105 % of control | dose: 1203.0 mg/kg/injection, schedule: Q01DX001 (ip), vehicle: saline 107 % of control | dose: 1203.0 mg/kg/injection, schedule: Q04DX003 (ip), vehicle: saline 110 % of control | dose: 1203.0 mg/kg/injection, schedule: Q08DX002 (ip), vehicle: saline 102 % of control | dose: 1333.0 mg/kg/injection, schedule: Q01DX001 (ip), vehicle: saline 106 % of control and 110 % of control | dose: 1600.0 mg/kg/injection, schedule: Q01DX001 (ip), vehicle: saline 107 % of control and 110 % of control | dose: 1600.0 mg/kg/injection, schedule: Q01DX001 (oral), vehicle: water 108 % of control | dose: 1600.0 mg/kg/injection, schedule: Q01DX001 (sc), vehicle: saline 107 % of control | dose: 1600.0 mg/kg/injection, schedule: Q01DX Z (oral), vehicle: saline 109 % of control | dose: 1796.0 mg/kg/injection, schedule: Q01DX001 (ip), vehicle: saline 109 % of control | dose: 1796.0 mg/kg/injection, schedule: Q08DX002 (ip), vehicle: saline 107 % of control | dose: 1800.0 mg/kg/injection, schedule: Q01DX001 (ip), vehicle: water 103 % of control | dose: 2000.0 mg/kg/injection, schedule: Q01DX001 (ip), vehicle: saline 110 % of control | dose: 2000.0 mg/kg/injection, schedule: Q01DX001 (ip), vehicle: water 101 % of control and 103 % of control | dose: 2000.0 mg/kg/injection, schedule: Q01DX001 (oral), vehicle: water 96 % of control | dose: 2000.0 mg/kg/injection, schedule: Q01DX Z (ip), vehicle: saline 96 % of control | dose: 2000.0 mg/kg/injection, schedule: Q01DX Z (ip), vehicle: water 94 % of control | dose: 2680.0 mg/kg/injection, schedule: Q08DX002 (ip), vehicle: saline 110 % of control | dose: 4000.0 mg/kg/injection, schedule: Q01DX001 (ip), vehicle: water 108 % of control | dose: 4000.0 mg/kg/injection, schedule: Q## X006 (oral), vehicle: water 107 % of control
